Residues, ends and D or L forms follow the SMILES beside them. *: point of attachment. Boc = CC(C)(C)OC(=O)*; Bn = c1ccc(C*)cc1

The compound `COc1ccc(-c2sc3c(c2C)c(=O)c(COC(C)=O)cn3Cc2ccccc2OC)cc1` returned a melting point of 158 to 159 °C.

With `CCCNC(=O)c1nc(C)ccc1C(=O)Nc1c(C#N)ccc(Cl)c1C`, the melting point lay in the range of 175 to 176 °C.

Turning to `CCc1nc(C)cn1CC1CC2c3cccc4[nH]cc(c34)CC2N(C)C1` (stereo not drawn), the melting point was in the range of 172 to 174 °C.

`C=C1c2ccccc2CC(N)c2ccccc21` (stereo not drawn) yielded a melting point of 84.5 to 86.5 °C.

For `N#Cc1cc(C(=O)N2CCC[C@H](c3nc(-c4ccc(F)cc4)no3)C2)ccc1F`, the melting point was in the range of 144 to 146 °C.

The compound `CC(c1ccccc1)c1n[nH]c2c1c(=O)n(-c1cccc(C(F)(F)F)c1)c1ncccc21` (stereo not drawn) had a melting point of 235 to 237 °C.

`Nc1nc(N)nc(-c2ccc(Oc3ccccc3)cc2)n1` displayed a melting point of 198 to 200 °C.

On to `COC(=O)CCc1cc2cc(Cl)ccc2n1S(=O)(=O)c1cccc(C(F)(F)F)c1`, for which the melting point was 98 to 100 °C.

Turning to `CC(C(=O)O)c1ccc(-c2ccccc2F)cc1` (stereo not drawn), the melting point was 94.5 to 97 °C.

For `C#CCCOc1cc(/C=C/C(=O)Nc2ccccc2C(=O)O)ccc1OC`, the melting point was 197 to 198 °C.

The compound `CC(=O)c1ccc(C(C)Oc2cncc(C(=O)Nc3ccc(C#N)cc3)c2)cc1` (stereo not drawn) showed a melting point of 181 to 183 °C.

Consider `Cc1ccc(NC(=O)OC2CN3CCC2CC3)cc1` (stereo not drawn), for which the melting point is 186 to 188 °C.

Compound `O=C(O)CCC(=O)Nc1ccc(N2CCN(c3ccncc3)CC2)cc1` returned a melting point of 263 to 264 °C.

Compound `CCCOc1ccc(C#N)cc1O` had a melting point of 99 °C.

Compound `COc1cc(C=O)cc(OC)c1C(C)(C)O` showed a melting point of 55 °C.

In turn, `CCc1cc(CNc2cccc3ccccc23)c(OC)nc1C` registered a melting point of 82 to 83 °C.

As to `COC(=O)C(=O)c1ccc(OC/C=C/c2c(C(C)C)nc3ccccc3c2-c2ccc(F)cc2)cc1`, the melting point lay within 109 to 111 °C.

Compound `COP(=O)(O)Cc1ccc(O)cc1` had a melting point of 89 to 91 °C.

In the case of `Nc1nc2ccccc2c2c1ncn2CCCCNC(=O)c1ccncc1`, the melting point was in the range of 213 to 214 °C.

In the case of `Cc1oc(-c2ccccc2)nc1C(N)=O`, the melting point was in the range of 154 to 157 °C.

`O=C(C=C1NC(c2ccc(F)cc2)=NC1(C(F)(F)F)C(F)(F)F)c1ccc(F)cc1` registered a melting point of 121 to 123 °C.

Consider `Cc1cc(-c2ccc(Cl)c(Cl)c2)nc(-c2ccnc(-c3cccc(S(N)(=O)=O)c3)c2)n1`, for which the melting point stood at 202 °C.

On to `Cc1c(Br)c(=O)c(C(=O)O)c(-c2ccccc2)n1C`, for which the melting point lay in the range of 252 to 253 °C.

Compound `COC(=O)c1nc(-c2ccccc2)c(-c2ccc(=O)n(C(C)C)n2)cc1C#N` returned a melting point of 136 to 138 °C.

Take `CC(=O)Nc1ccc2c(c1)C(=O)N(c1ccc3c(ccn3C)c1)C2`: the melting point lay in the range of 275 to 280 °C.

As to `O=C(NC1Cc2cccc(-c3ccc(F)cc3)c2C1)c1ccc(F)cc1` (stereo not drawn), the melting point came out at 157 °C.

Compound `O=C1CC(C(=O)O)(c2ccccc2)C1` registered a melting point of 133 to 135 °C.

For the compound `O=C(NC1CC1)c1cccc(-c2cccn3c(=O)n(Cc4cccc(C(F)(F)F)c4)nc23)c1`, the melting point fell in the range of 157 to 158 °C.

With `NC(=O)Cc1ccc(N/C=C2\C(=O)Nc3ccccc32)cc1`, the melting point was > 250 °C.

As to `O=C(O)Cc1c(Sc2ccccc2)c2cc(F)ccc2n1Cc1ccc(Cl)cc1`, the melting point is 168 °C.

For `Fc1cc(N=C2NCCN2)c(F)c(F)c1F`, the melting point lay in the range of 141 to 143 °C.

Take `CSCCC1(C)CCc2c(C)c(O)c(C)c(C)c2O1` (stereo not drawn): the melting point is 66.5 to 67 °C.

As for `NC(=O)C(=Cc1c[nH]c2ncccc12)c1ccccc1`, the melting point is 222 to 224 °C.

Turning to `COc1ccc(C2(CCN3CCC(C(=O)c4nc5ccccc5n4Cc4ccc(F)cc4)CC3)CCN(C(=O)c3ccccc3)C2)cc1OC` (stereo not drawn), the melting point was in the range of 42 to 44 °C.

On to `Cc1ccc(SSc2ccc(C)cc2C(=O)Nc2ccc(S(N)(=O)=O)cc2)c(C(=O)Nc2ccc(S(N)(=O)=O)cc2)c1`, for which the melting point is 307 °C.

`CCc1ccc2c(c1)C=Cc1sc(C)nc1C2c1cn(C)c(=O)[nH]c1=S` (stereo not drawn) came in with a melting point of 265 °C.

On to `CNC(=NS(C)(=O)=O)SC`, for which the melting point was 88 to 91 °C.

Compound `CN1CCC(Oc2ccc(C#N)cc2C(F)(F)F)CC1` had a melting point of 66 to 69 °C.

In turn, `Cc1cccc(C(=O)N(NC(=O)NS(=O)(=O)c2ccc(Cl)cc2)C(C)(C)C)c1` displayed a melting point of 184 to 188 °C.

Regarding `CCC(=NO)c1ccc(Cl)cc1`, the melting point fell in the range of 56 to 57.5 °C.

With `COc1cc2ccc(-c3ccc(C(C)C)cc3)cc2oc1=O`, the melting point amounted to 127 °C.

In the case of `Cc1cc(-c2nnc3cc(C(C)(C)C)c(OCc4ncn(C)n4)nn23)no1`, the melting point was in the range of 221 to 223 °C.

Turning to `CCOC(=S)c1c(CC)nc(C)nc1NCCc1ccc(OC)c(OC)c1`, the melting point lay in the range of 52 to 53 °C.

On to `CC(C)N1CC2(COc3ccc([N+](=O)[O-])cc3OC2)OC1=O` (stereo not drawn), for which the melting point was in the range of 140 to 144 °C.

On to `O=S(=O)(CC1CC1)c1nc[nH]n1`, for which the melting point lay within 140 to 149 °C.

`CNc1nc(C)nc(N2CCCc3ccccc32)n1` displayed a melting point of 159 to 160 °C.

Take `COCNc1c(C#N)cnn1-c1ccc(Cl)c(Cl)c1Cl`: the melting point lay within 129 to 130 °C.

`CS(=O)(=O)c1ccc(-c2oc3ccccc3c(=O)c2-c2cccc(F)c2)cc1` displayed a melting point of 225 °C.

Take `CNC(=O)c1ccccc1Nc1nc(Nc2c(OC)ccc3c2C(=O)N(C)CCC3)ncc1Cl`: the melting point lay in the range of 185 to 187 °C.

Turning to `CC(=NNC(=N)N)c1cccc(OCc2ccc3ccccc3c2)c1`, the melting point lay in the range of 176 to 178 °C.

Compound `O=C(O)c1cn(-c2ccc(F)cc2F)c2c(F)c(F)c(F)c(F)c2c1=O` yielded a melting point of 250 to 252 °C.

`CN1CCN(c2c(F)c(NCc3ccccc3)c3c(c2F)n2c(=O)n(OCc4ccccc4)c(=O)cc2n3C2CC2)CC1` registered a melting point of 214 °C.

In turn, `Cc1ccc(C(=O)C2=C(O)C(=O)N(c3ccc(C)nn3)C2c2ccc(C)cc2C)cc1` (stereo not drawn) registered a melting point of 254 °C.

In turn, `CCCc1nc(C=O)c(C(=O)OCC)n1Cc1ccc(-c2ccccc2C(=O)OC(C)(C)C)cc1` returned a melting point of 117 to 119 °C.

For `Cc1c2c(c(Cl)n1C)NC(=O)CN=C2c1ccccc1`, the melting point is 195 °C.

In turn, `Cc1ccc(S(=O)(=O)N2CCCC(CS(=O)(=O)c3ccccc3)C2)cc1` (stereo not drawn) gave a melting point of 135 to 136 °C.

`COc1cccc(CC(=O)O)c1OCCCc1ccc(OC(C)C)cc1Oc1ncc(Cl)cc1Cl` had a melting point of 92 to 93 °C.

In turn, `Cc1ccc(C(=O)Nc2ccc(N3CCNCC3)cc2)c(-c2ccc(C(C)C)cc2)c1` showed a melting point of 131 to 133 °C.

`CNC(=O)C(C)C(O)(Cn1cncn1)c1ccc(Cl)cc1Cl` (stereo not drawn) returned a melting point of 242 to 244 °C.

`CCCCc1ccc(S(=O)(=O)Nc2cc(C)on2)s1` gave a melting point of 96.5 to 101 °C.

In turn, `Cc1nc2cc(C(C)C)ccc2n1C` registered a melting point of 130 to 131 °C.

Regarding `c1cc2c3c(c1)[C@H]1CCC[C@H]1N3CCNCC2` (relative stereo), the melting point is > 130 °C.

As to `COc1cc(Br)cc2nc(SCc3ccccc3)nn12`, the melting point was in the range of 80 to 82 °C.

`CN(C)CCSc1ccc2ccc(N)nc2n1`: the melting point amounted to 174 °C.

Turning to `c1snc2c1Sc1csnc1S2`, the melting point was in the range of 190 to 191 °C.

`CCCCN1CC(=O)N2[C@@H](c3ccc(N)cc3)c3[nH]c4ccccc4c3C[C@@H]2C1=O` (relative stereo) had a melting point of 192 °C.

The compound `O=C1CCN(c2ccc(C(=O)O)cc2)CCN1` gave a melting point of 285 to 286 °C.

The compound `CCN1c2ncc(COc3ccc(C(=O)OC)cc3)cc2C(=O)N(C)c2ccc(Cl)nc21` gave a melting point of 196 to 197 °C.

`CC1(OC(=O)c2ccco2)C=CC(COC(=O)c2ccco2)=CN1` (stereo not drawn) had a melting point of 118 to 119 °C.

As for `ON=Cc1ccc2c(c1)ncn2-c1cccc(-c2ccncn2)c1`, the melting point lay in the range of 220 to 221 °C.

The compound `CCOc1ccc(-c2ccc3c(c2)C=C(C(=O)Nc2ccc(CN(C)C4CCC(=O)CC4)cc2)CCO3)cc1` returned a melting point of 146 to 148 °C.

Take `COC(=O)C(CC(C)C)NC(=O)C(C)NC(=O)C(Cc1ccc(OCc2ccccc2)cc1)NC(=O)C(COCc1ccccc1)NC(=O)OC(C)(C)C` (stereo not drawn) (Boc-S(Bn)Y(Bn)AL-OMe; configuration not given here): the melting point is 67 to 71 °C.

Turning to `O=C(NC(=O)c1ccc(OCCn2ccnc2)cc1)c1ccccc1`, the melting point lay within 152 to 154 °C.

`CC(c1ccc2[nH]c(-c3cccnc3)nc2c1)n1ccnc1` (stereo not drawn) came in with a melting point of 254 °C.

For the compound `COc1ccc(CC(=O)c2cc(OC)c(OC)cc2C)cc1OC`, the melting point worked out at 115 °C.

`O=C(c1ccccc1)c1cccc2c(Cl)c[nH]c12`: the melting point fell in the range of 145 to 149 °C.

The compound `CC(C)OC(=O)C1=C2SCC(=CC(=O)Sc3ccccc3)N2CC1C` (stereo not drawn) returned a melting point of 153 to 154 °C.

`CC#CCOc1ccc(SC(C(=O)NO)C(C)C)cc1` (stereo not drawn) displayed a melting point of 128 °C.

As to `CC(=O)OC1CSC(Oc2cccnc2N=CN(C)C)C(OC(C)=O)C1OC(C)=O` (stereo not drawn), the melting point was found to be 120 °C.

`COC(=O)C1=C(O)c2ccc(F)cc2S(=O)(=O)N1C` showed a melting point of 191 °C.

For the compound `Cc1ccc(-c2ccc3c(c2)C=C(C(=O)O)C(C)O3)cc1` (stereo not drawn), the melting point was in the range of 190 to 192 °C.

`NCc1ccc2c(c1)ncn2-c1cccc(-c2ccc(F)nc2)c1` gave a melting point of 141 to 143 °C.

Compound `NC(=NCC(F)(F)F)Nc1ccn(CCCCO)n1` returned a melting point of 105 to 106 °C.

Consider `Nc1ccc2c(c1)CN1CC(=O)NC1=N2`, for which the melting point was > 275 °C.

Compound `CC(=O)OCC(=O)Nc1cccc(Cl)c1C#N` returned a melting point of 109 to 110 °C.

In turn, `Cn1c(=O)cc(-c2ccccc2)c2cc(C(COCc3ccc(Cl)cc3)(c3ccc(Cl)cc3)n3ccnc3)ccc21` (stereo not drawn) returned a melting point of 177 °C.

`COc1ccc2[nH]c(SCc3nccc(N4CCOCC4)n3)nc2c1`: the melting point lay in the range of 188 to 192 °C.

Take `CN1CC(=Cc2c(F)c(F)c(N=[N+]=[N-])c(F)c2F)C(=O)C(=Cc2c(F)c(F)c(N=[N+]=[N-])c(F)c2F)C1`: the melting point was found to be 153 °C.

The values above are taken from a melting point compilation (Tetko et al.; mined from patent text by program, amines drawn as free bases though some values may be those of a salt).
